Data as given in patent US20260209301A1, “Galanin-2 Receptor Agonists” (LIFEARC, priority 2022, published 2026).
Read-outs that look alike come from different tables or passages of the source.

What was measured:
[1] = test system: mouse CCI model of neuropathic pain; type: in vivo; details: for minimal effective dose (at 4 hrs): von Frey, 4 hrs post-dose
Description: The Chronic Constriction Injury (CCI) model of neuropathic pain involves unilateral loose ligation of four ligatures around the left sciatic nerve at mid-thigh level spaced 1 mm apart (Chaplan S R, et al J Neurosci Methods. 1994 July; 53(1):55-63). This procedure results in the development of hyperalgesia, allodynia and spontaneous pain (ectopic discharges) which can be measured using mechanical and thermal behavioural assessments. […] The mouse CCI model of neuropathic pain differs from that of the rat by virtue of 3 ligatures around the sciatic nerve instead of 4.
Static mechanical tactile allodynia: Static mechanical (tactile) allodynia was assessed by measurement of withdrawal threshold using calibrated (force; g) von-Frey monofilaments (Touch-Test Sensory Evaluator; Scientific Marketing Associates) applied to the plantar surface of the hindpaw. The animals were placed in individual Perspex boxes on a raised metal mesh for 30-40 min before the test. A series of graduated von Frey hairs (0.07, 0.16, 0.4, 0.6 and 1 g) was applied in sequence with a protocol of 1 sec on 1 sec off repeated 10 times. Each hair was applied perpendicularly to the centre of the ventral surface of the paw until it bent slightly. The force applied to the hind-paw of the animal to induce 5 responses out of 10 trials was recorded as paw withdrawal threshold (PWT).
Baseline PWT was assessed on three consecutive days (Day-2, Day-1 and Day 0) and the mean of the last two readings used as the baseline withdrawal threshold.
On Day 1, neuropathic pain was induced via ligation of the sciatic nerve using three loose ligatures of prolene sutures (Chronic Constriction Injury). Under Isoflurane anaesthesia mixed with oxygen (3:1, 1 L/min) the left hind leg was shaved mid-thigh level and an incision made through the skin using a scalpel. The biceps femoris muscle layer was dissected by making an initial incision using a pair of sharp scissors, which was then widened using a pair of blunt scissors. The common sciatic nerve was exposed using a pair of forceps and 3 loose ligatures of prolene (7-0, Ethicon) were tied around the sciatic nerve with 1 mm spacing between each. The nerve was then returned below the muscle layer and the wound closed using absorbable sutures (Vicryl).
Von Frey assessment of mechanical allodynia was taken on days 19 and 22. Animals were then ranked and randomised (based on a Latin square design) to treatment groups according to the percentage change (compared to pre-surgery baseline) of the mean mechanical withdrawal threshold observed on days 19 and 22. Only those animals showing a PWT percentage change of >60% from pre-surgery baseline were included in the study.
Dosing took place on day 23 with either vehicle, test compound (i.p.) or Pregabalin (15 mg/kg p.o.) at 10 ml/kg. Allodynia was then assessed at intervals thereafter e.g. 2, 4 and 24 hours post dose. von Frey measurement continued until activity disappeared up to day 27.
For studies involving a repeat administration, dosing took place on day 23 with either vehicle, test compound (i.p.) or Pregabalin (15 mg/kg p.o.) at 10 mL/kg. Allodynia was then assessed at intervals thereafter e.g. 4, 24 and 48 hours post dose. Animals were re-dosed at 68, 116, 164, 212, 260, 308 hours, with von Frey measurements conducted 4 hrs after each administration. Allodynia was therefore measured at 72, 120, 168, 216, 264, and 312 hours post initial dose, equating to repeat dosing 2, 3, 4, 5, 6 and 7 times, respectively
Evaluation of study & Statistical analysis: vF withdrawal threshold (g) was assessed by a series of graduated von Frey hairs (0.07, 0.16, 0.4, 0.6 and 1 g) applied in sequence to the ipsilateral hindpaw with a protocol of 1 sec on 1 sec off repeated 10 times. Each hair was applied perpendicularly to the centre of the ventral surface of the paw until it bent slightly. […]

[2] = target: T1, GALR2 (Homo sapiens, UniProt O43603); test: Radioligand binding, [125I]galanin displacement on CHO GalR2 membranes; set-up: expressed in transfected cells; host or cells: CHO (Flp-In, pcDNA5/FRT); details: recombinant GalR2 membranes, FIG. 3
T1 sequence (O43603 1-387): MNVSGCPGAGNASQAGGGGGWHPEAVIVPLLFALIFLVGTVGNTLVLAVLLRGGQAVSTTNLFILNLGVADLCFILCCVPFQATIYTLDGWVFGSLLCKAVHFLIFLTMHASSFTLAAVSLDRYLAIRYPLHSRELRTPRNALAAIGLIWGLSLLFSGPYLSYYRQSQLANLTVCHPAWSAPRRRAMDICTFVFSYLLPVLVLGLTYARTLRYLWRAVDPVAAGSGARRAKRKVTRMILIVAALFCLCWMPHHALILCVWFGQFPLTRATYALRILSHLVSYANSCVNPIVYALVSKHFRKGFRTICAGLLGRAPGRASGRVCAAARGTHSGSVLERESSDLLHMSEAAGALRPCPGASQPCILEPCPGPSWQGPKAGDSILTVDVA
Protocol: Cell membrane homogenates (4 μg protein—from CHO cells expressing the GalR2 receptor) were incubated for 120 minutes at 22° C. with 0.05 nM [^125I] galanin in the absence or presence of test compound in a buffer containing 25 mM Tris-HCl (pH 7.4, 10 mM MgCl2 and 0.5% BSA. Non-specific binding was determined in the presence of 1 μM porcine galanin. Following incubation, samples were filtered rapidly under vacuum through glass fiber filters (GF/B, Packard) pre-soaked with 0.3% PEI and rinsed several times with ice cold 50 mM Tris-HCl using a 96 sample cell harvester (Unifilter, Packard). The filters are dried then counted for radioactivity in a scintillation counter (Topcount, Packard) using a scintillation cocktail (Microscint 0), Packard). The results are expressed as a percent inhibition of the control radioligand specific binding. The standard reference compound is porcine galanin which is tested in each experiment at several concentrations to obtain a competition curve from which its IC50 is generated.
Briefly, cell overexpressing recombinant GalR2 were used to for crude membrane preparations. Competition style binding assays were then used to monitor displacement of [125I]-Galanin using a range of concentrations of Gal-FC fusion. After a period of incubation data were expressed relative the maximum specific Galanin bound.

Row | Substance | effect on withdrawal threshold, low dose ([1]; 0.03 mg/kg i.p., 4 hours) | effect on withdrawal threshold, low dose ([1]; 0.1 mg/kg, 24 hours) | effect-desensitisation on repeat administration ([1]; 0.3 and 1 mg/kg i.p., re-dosed days 3-13) | minimal effective dose (at 4 hrs) ([1]; mouse CCI) | duration of statistically significant reversal of mechanical hyperalgesia ([1]; mouse CCI, highest and lowest doses tested) | Minimum Effective Dose [MED] ([1]; mouse CCI, multiple studies taken collectively) | sustained reversal on repeat dosing, duration ([1]; mouse CCI, repeat dosing) | minimal effective dose ([1]; mouse CCI, study with 1, 3, 10 and 30 mg/kg i.p.) | sedation (observational during testing) ([1]; mouse, in vivo) | reversal of CCI-induced mechanical hyperalgesia ([1]; 3, 10 and 30 mg/kg i.p., 2 and 4 hrs) | effect on CCI-induced mechanical hyperalgesia at 24 hrs ([1]; 24 hrs, any of the doses tested (1-30 mg/kg i.p.)) | pIC50, displacement of [125I]-Galanin binding [2]
1 | Gal2-13FC: galanin 2-13, AEAAAKEAAAKA linker, human IgG1 FC; SEQ ID NO: 7 | effective | statistically significant | no loss of effect | 0.03 mg/kg i.p. | up to 96 hrs post-dose | ≤ 0.03 mg/kg i.p. | ≥ 13 days | ≤ 1 mg/kg i.p. | not associated with overt sedation |  |  | 
2 | Gal2-30FC: galanin 2-30, AEAAAKEAAAKA linker, human IgG1 FC; SEQ ID NO: 28 |  |  |  | 3 mg/kg i.p. |  |  |  |  |  | efficacious and reversed CCI-induced mechanical hyperalgesia | not at 24 hrs | 7.55
